Measured values: US7009052B2, “Sulfonamide derivatives” (Warner Lambert Company LLC, priority 2003, dated 2006)

Target: T1, androgen receptor (Homo sapiens, UniProt P10275)
T1 sequence (P10275 1-920 Q868H): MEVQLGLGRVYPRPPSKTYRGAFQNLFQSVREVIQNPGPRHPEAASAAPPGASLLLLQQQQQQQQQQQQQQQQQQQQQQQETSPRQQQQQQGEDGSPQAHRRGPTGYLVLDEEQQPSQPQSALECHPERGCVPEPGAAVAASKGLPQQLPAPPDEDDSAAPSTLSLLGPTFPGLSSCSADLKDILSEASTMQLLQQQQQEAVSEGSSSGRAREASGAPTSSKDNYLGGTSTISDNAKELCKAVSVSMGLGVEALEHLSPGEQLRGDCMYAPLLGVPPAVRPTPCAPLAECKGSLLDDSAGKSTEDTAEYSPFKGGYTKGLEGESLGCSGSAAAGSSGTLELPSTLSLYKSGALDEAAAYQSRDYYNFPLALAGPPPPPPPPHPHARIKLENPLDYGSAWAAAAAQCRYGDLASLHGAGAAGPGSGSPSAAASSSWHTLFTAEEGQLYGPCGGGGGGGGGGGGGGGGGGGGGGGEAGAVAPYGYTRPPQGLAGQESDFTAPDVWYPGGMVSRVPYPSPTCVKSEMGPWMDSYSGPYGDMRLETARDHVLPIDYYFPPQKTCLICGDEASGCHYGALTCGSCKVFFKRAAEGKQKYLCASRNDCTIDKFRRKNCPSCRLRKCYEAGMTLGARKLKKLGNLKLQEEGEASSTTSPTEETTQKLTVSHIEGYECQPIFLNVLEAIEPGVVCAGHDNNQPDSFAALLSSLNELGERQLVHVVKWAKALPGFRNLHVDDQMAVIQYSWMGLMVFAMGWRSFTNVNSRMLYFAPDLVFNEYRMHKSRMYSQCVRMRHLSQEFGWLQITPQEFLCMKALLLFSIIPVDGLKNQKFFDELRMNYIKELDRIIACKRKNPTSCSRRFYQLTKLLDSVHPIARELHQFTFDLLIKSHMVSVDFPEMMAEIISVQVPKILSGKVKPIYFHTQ
Experiment: AR Antagonist Cell Assay (MMTV-luciferase reporter, DHT-induced)
Type: cell-based
Details: MDA-MB453-MMTV clone 54-19 cells, 100 pM DHT, 17 hr
Experimental: The compounds ability to antagonize the effects of androgen on the androgen receptor were determined in the protocol described immediately below.
Experimental Procedure for AR Antagonist Cell Assay
Cell line: MDA-MB453-MMTV clone 54-19. This cell line is a stable transfected cell line with MDA-MB453 cell background (human breast tumor cell expressing high level of androgen receptor). A MMTV minimal promoter containing ARE was first cloned in front of a firefly luciferase reporter gene. Then the cascade was cloned into transfection vector pUV120puro. Electroporation method was used for transfecting MDA-MB-453 cell. Puromycin resistant stable cell line was selected.
Cell Culture Media and Reagents:
Culture medium: DMEM (high glucose, Gibco cat #: 11960-044), 10% FBS, and 1% L-glutamine
Plating medium: DMEM (phenol red free), 10% charcoal treated HyClone serum, 1% L-glutamine
Assay medium: DMEM (phenol red free), 1% charcoal treated HyClone serum, 1% L-glutamine, and 1% penicillin/streptomycin
3× luciferase buffer: 2% beta-mercaptoethanol, 0.6% ATP, 0.0135% luciferine in cell lysis buffer
• 1. Cells are maintained in culture medium, splitting cells when they reach 80–90% confluence • 2. To test compounds, 10,000 cells/well are plated to opaque 96 cell culture plate in 100 ul/well plating medium, culture for overnight at 37° C. in cell culture incubator • 3. Carefully remove plating medium, then add 80 ul/well of pre-warmed assay medium, add 10 ul/well testing compound (final concentration at 10 uM or 1 uM), incubate at 37° C. for 30 minutes • 4. Add 10 ul/well freshly prepared DHT (final concentration at 100 pM) to each well, incubate at 37° C. for 17 hr (overnight) • 5. Add 50 ul/well 3× luciferase buffer, incubate at room temperature for 5 minutes, then count on Luminometer The fold induction over background by 100 pM DHT in the absence of testing compounds is standardized as 100% and experimental result is expressed as percentage of inhibition by testing compounds. TABLE3

Row | Structure (SMILES) | IC50
1 | O=c1cc(C(F)(F)F)c2cc(S(=O)(=O)Nc3cccnc3)ccc2[nH]1 [Example 81, 2-Oxo-4-trifluoromethyl-1,2-dihydroquinoline-6-sulfonic acidpyridin-3-ylamide] | > 10 µM
2 | O=c1cc(C(F)(F)F)c2cc(S(=O)(=O)Nc3ccccc3Br)ccc2[nH]1 [Example 110, 2-Oxo-4-trifluoromethyl-1,2-dihydroquinoline-6-sulfonic acid(2-bromophenyl)amide] | > 10 µM
3 | CCCCCN(CCO)S(=O)(=O)c1ccc2[nH]c(=O)cc(C(F)(F)F)c2c1 [Example 74, 2-Oxo-4-trifluoromethyl-1,2-dihydroquinoline-6-sulfonic acid(2-hydroxyethyl)-pentylamide] | 0.29 µM
4 | O=c1cc(C(F)(F)F)c2cc(S(=O)(=O)Nc3ccc(F)cc3F)ccc2[nH]1 [Example 94, 2-Oxo-4-trifluoromethyl-1,2-dihydroquinoline-6-sulfonic acid(2,4-difluorophenyl)amide] | > 10 µM
5 | COCCN(CCOC)S(=O)(=O)c1ccc2[nH]c(=O)cc(C(F)(F)F)c2c1 [Example 80, 2-Oxo-4-trifluoromethyl-1,2-dihydroquinoline-6-sulfonic acidbis(2-methoxyethyl)amide] | > 10 µM
6 | COc1ccc(OC)c(NS(=O)(=O)c2ccc3[nH]c(=O)cc(C(F)(F)F)c3c2)c1 [Example 102, 2-Oxo-4-trifluoromethyl-1,2-dihydroquinoline-6-sulfonic acid(2,5-dimethoxyphenyl)amide] | 7.86 µM
7 | CCN(Cc1ccccc1)S(=O)(=O)c1ccc2c(c1)c(C(F)(F)F)cc(=O)n2C [Example 10, 1-Methyl-2-oxo-4-trifluoromethyl-1,2-dihydroquinoline-6-sulfonicacid benzylethylamide] | 6.35 µM
8 | CN(C)CCN(C)S(=O)(=O)c1ccc2[nH]c(=O)cc(C(F)(F)F)c2c1 [Example 72] | > 10 µM
9 | CCCCN(C)S(=O)(=O)c1ccc2[nH]c(=O)cc(C(F)(F)F)c2c1 [Example 76, 2-Oxo-4-trifluoromethyl-1,2-dihydroquinoline-6-sulfonic acidbutylmethylamide] | 0.21 µM
10 | CC(C)(NS(=O)(=O)c1ccc2oc(=O)cc(C(F)(F)F)c2c1)c1ccccc1 [Example 65, 2-Oxo-4-trifluoromethyl-2H-chromene-6-sulfonic acid (1-methyl-1-phenylethyl)amide] | > 10 µM
11 | CC(O)c1cccc(NS(=O)(=O)c2ccc3c(c2)c(C(F)(F)F)cc(=O)n3C)c1 (centres unmarked) [Example 28, 1-Methyl-2-oxo-4-trifluoromethyl-1,2-dihydro-quinoline-6-sulfonic acid [3-(1-hydroxyethyl)phenyl]-amide] | > 10 µM
12 | O=c1cc(C(F)(F)F)c2cc(S(=O)(=O)Nc3cccc(OCc4ccccc4)c3)ccc2[nH]1 [Example 114, 2-Oxo-4-trifluoromethyl-1,2-dihydroquinoline-6-sulfonic acid(3-benzyloxyphenyl)amide] | > 10 µM
13 | COc1ccccc1NS(=O)(=O)c1ccc2[nH]c(=O)cc(C(F)(F)F)c2c1 [Example 92, 2-Oxo-4-trifluoromethyl-1,2-dihydroquinoline-6-sulfonic acid(2-methoxyphenyl)amide] | > 10 µM
14 | Cc1cc(=O)oc2cc(NS(=O)(=O)c3ccc4c(c3)c(C(F)(F)F)cc(=O)n4C)ccc12 [Example 40, 1-Methyl-2-oxo-4-trifluoromethyl-1,2-dihydroquinoline-6-sulfonic(4-methyl-2-oxo-2H-chromen-7-yl)amide] | > 10 µM
15 | O=c1cc(C(F)(F)F)c2cc(S(=O)(=O)Nc3ccc(CCO)cc3)ccc2[nH]1 [Example 113, 2-Oxo-4-trifluoromethyl-1,2-dihydroquinoline-6-sulfonic acid[4-(2-hydroxyethyl)phenyl]amide] | > 10 µM
16 | Cn1c(=O)cc(C(F)(F)F)c2cc(S(=O)(=O)N(Cc3ccccc3)Cc3ccccc3)ccc21 [Example 9, 1-Methyl-2-oxo-4-trifluoromethyl-1,2-dihydroquinoline-6-sulfonicacid dibenzylamide] | > 10 µM
17 | Cn1c(=O)cc(C(F)(F)F)c2cc(S(=O)(=O)NCc3cc(Cl)ccc3F)ccc21 [Example 59, 1-Methyl-2-oxo-4-trifluoromethyl-1,2-dihydroquinoline-6-sulfonicacid 5-chloro-2-fluorobenzylamide] | > 10 µM
18 | O=c1cc(C(F)(F)F)c2cc(S(=O)(=O)NCC3CCCCC3)ccc2[nH]1 [Example 123, 2-Oxo-4-trifluoromethyl-1,2-dihydroquinoline-6-sulfonic acidcyclohexylmethylamide] | 8.51 µM

The remaining compounds from weak to strong by IC50, led by results:

Row | IC50 | Structure (SMILES)
19 | 5.68 µM | Cn1c(=O)cc(C(F)(F)F)c2cc(S(=O)(=O)NCCc3cccs3)ccc21 [Example 54, 1-Methyl-2-oxo-4-trifluoromethyl-1,2-dihydroquinoline-6-sulfonicacid (2-thiophen-2-ylethyl)amide]
20 | 5.03 µM | CCc1cccc(NS(=O)(=O)c2ccc3c(c2)c(C(F)(F)F)cc(=O)n3C)c1 [Example 16, 1-Methyl-2-oxo-4-trifluoromethyl-1,2-dihydroquinoline-6-sulfonicacid (3-ethylphenyl)amide]
21 | 4.23 µM | CC(=O)c1cccc(NS(=O)(=O)c2ccc3c(c2)c(C(F)(F)F)cc(=O)n3C)c1 [Example 24, 1-Methyl-2-oxo-4-trifluoromethyl-1,2-dihydroquinoline-6-sulfonicacid (3-acetylphenyl)amide]
22 | 2.94 µM | C[C@@H](NS(=O)(=O)c1ccc2[nH]c(=O)cc(C(F)(F)F)c2c1)c1ccccc1 [Example 125, 2-Oxo-4-trifluoromethyl-1,2-dihydroquinoline-6-sulfonic acid(1-phenylethyl)amide]
23 | 2.34 µM | CC(C)NS(=O)(=O)c1ccc2[nH]c(=O)cc(C(F)(F)F)c2c1 [Example 117, 2-Oxo-4-trifluoromethyl-1,2-dihydroquinoline-6-sulfonic acidisopropylamide]
24 | 2.16 µM | O=c1cc(C(F)(F)F)c2cc(S(=O)(=O)NCc3ccccc3Br)ccc2[nH]1 [Example 156, 2-Oxo-4-trifluoromethyl-1,2-dihydroquinoline-6-sulfonic acid2-bromobenzylamide]
25 | 1.9 µM | O=c1cc(C(F)(F)F)c2cc(S(=O)(=O)NCCc3cccs3)ccc2[nH]1 [Example 133, 2-Oxo-4-trifluoromethyl-1,2-dihydroquinoline-6-sulfonic acid(2-thiophen-2-ylethyl)amide]
26 | 1.56 µM | O=c1cc(C(F)(F)F)c2cc(S(=O)(=O)NCC(c3ccccc3)c3ccccc3)ccc2[nH]1 [Example 159, 2-Oxo-4-trifluoromethyl-1,2-dihydroquinoline-6-sulfonic acid(2,2-diphenylethyl)amide]
27 | 1.31 µM | O=c1cc(C(F)(F)F)c2cc(S(=O)(=O)N(CCO)Cc3ccccc3)ccc2[nH]1 [Example 71, 2-Oxo-4-trifluoromethyl-1,2-dihydroquinoline-6-sulfonic acidbenzyl(2-hydroxyethyl)amide]
28 | 0.83 µM | Cc1cccc(NS(=O)(=O)c2ccc3[nH]c(=O)cc(C(F)(F)F)c3c2)c1 [Example 82, 2-Oxo-4-trifluoromethyl-1,2-dihydroquinoline-6-sulfonic acidm-tolylamide]
29 | 0.13 µM | CCc1cccc(NS(=O)(=O)c2ccc3[nH]c(=O)cc(C(F)(F)F)c3c2)c1 [Example 88, 2-Oxo-4-trifluoromethyl-1,2-dihydroquinoline-6-sulfonic acid(3-ethylphenyl)amide]
